Measurements published in patent US20240116985A1, “STAPLED PEPTIDES AND METHODS THEREOF” (priority 2020, published 2024).
Converted amounts (≈) assume the structure as drawn. Where two headings read alike, the source gives them in different places.

Assays:
[1] = target: T1, beta-catenin/TCF4 engagement (Homo sapiens, UniProt P35222); assay: Nano-BRET target engagement assay (B-cat-Halo & TCF4-Luc in HEK293 cells); assay type: cell-based
T1 construct: expressed in transfected cells; host or cells: HEK293
T1 sequence (P35222 1-781): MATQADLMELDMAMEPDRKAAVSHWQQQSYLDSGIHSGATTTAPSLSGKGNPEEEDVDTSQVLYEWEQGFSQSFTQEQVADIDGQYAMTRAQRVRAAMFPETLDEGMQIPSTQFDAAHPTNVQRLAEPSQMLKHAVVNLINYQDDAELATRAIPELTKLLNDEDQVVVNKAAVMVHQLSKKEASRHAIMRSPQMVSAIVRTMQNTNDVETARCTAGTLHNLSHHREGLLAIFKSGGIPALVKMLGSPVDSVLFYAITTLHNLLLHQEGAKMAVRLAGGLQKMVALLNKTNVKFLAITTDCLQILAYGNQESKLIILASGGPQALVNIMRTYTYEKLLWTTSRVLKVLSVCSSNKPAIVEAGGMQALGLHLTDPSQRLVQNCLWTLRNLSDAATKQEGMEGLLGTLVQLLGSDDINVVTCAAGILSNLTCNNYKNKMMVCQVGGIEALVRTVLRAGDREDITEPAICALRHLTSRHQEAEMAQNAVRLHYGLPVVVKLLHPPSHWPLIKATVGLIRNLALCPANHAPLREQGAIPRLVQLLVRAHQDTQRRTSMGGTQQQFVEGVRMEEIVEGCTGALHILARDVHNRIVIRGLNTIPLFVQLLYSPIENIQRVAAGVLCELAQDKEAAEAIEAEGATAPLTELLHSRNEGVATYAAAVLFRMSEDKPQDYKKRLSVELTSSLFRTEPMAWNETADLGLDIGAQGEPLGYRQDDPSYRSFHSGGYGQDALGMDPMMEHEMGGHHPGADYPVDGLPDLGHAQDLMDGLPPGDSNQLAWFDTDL

Solubility in PBS = assay type: physicochemical
Procedure, shortened: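 Steps: ultracentrifuge the peptide PBS solution, inject the supernatant on HPLC, inject a 50 μM peptide DMSO solution as reference, then calculate solubility as area ratio (PBS/DMSO) × 50 uM.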

[2] = target: T2, full-length beta-Catenin (Uniprot ID P35222) (Homo sapiens, UniProt P35222); assay: Fluorescence polarization IC50 (beta-catenin / 5FAM-TCF4 10-53 competition); assay type: binding
T2 construct: 10 nM full-length beta-Catenin (Uniprot ID P35222)
T2 sequence (P35222 1-781): T1 sequence (P35222 1-781)

CHI Log D procedure = assay type: physicochemical; conditions: for chromatographic logD: pH 7.4, CHI Log D; for CHI Log D: pH 7.4
[3] = absolute IC50, read-out: NanoBRET Abs IC50
[4] = fluorescence polarization, read-out: beta-Catenin FP IC50
[5] = fluorescence polarization, beta-catenin, read-out: FP EC50

SMILES	IC50 ([1]; read-out: NanoBRET Abs IC50)	Solubility (Solubility in PBS; Solubility (uM))	IC50 ([2]; read-out: beta-Catenin FP IC50)	chromatographic logD (CHI Log D procedure)	IC50 ([1]; Abs IC50, read-out: NanoBRET Abs IC50)	IC50 [1, 3]	Solubility (Solubility in PBS)	IC50 [2, 4]	IC50 ([2]; read-out: FP EC50)	CHI Log D (CHI Log D procedure)	IC50 [2, 5]	IC50 ([1]; read-out: NanoBRET IC50)
CC(=O)N1CCC[C@]12CC=CCCCC1(CCCC=CCCCOC(=O)N3CC[C@@](C(=O)N[C@@H](Cc4ccsc4)C(=O)N[C@@H](Cc4csc5ccccc45)C(N)=O)(C3)NC(=O)[C@H](CC(N)=O)NC(=O)[C@H](Cc3ccccc3)NC(=O)[C@H](C)NC(=O)[C@H](C)NC(=O)[C@H](CCC(N)=O)NC(=O)[C@H](CC(=O)O)NC1=O)NC(=O)[C@H](CC(C)(C)C)NC(=O)[C@H](CC(=O)O)NC2=O (stereo partly drawn) [I-858, Ac-PL3-Asp-Npg-B5-Asp-Gln-Ala-Ala-Phe-Asn-PyrS2-3Thi-BztA-NH2]	> 20 µM	18 µM (≈ 32.5 µg/mL)	34 nM	2.54	–	–	–	–	–	–	–	–
CC(=O)N1CCC[C@]12CC=CCCCC1(CCCC=CCCCOC(=O)N3CC[C@@](C(=O)N[C@@H](Cc4ccsc4)C(=O)N[C@@H](Cc4csc5ccccc45)C(=O)N[C@@H](Cc4c[nH]cn4)C(N)=O)(C3)NC(=O)[C@H](CC(N)=O)NC(=O)[C@H](Cc3ccccc3)NC(=O)[C@H](C)NC(=O)[C@H](C)NC(=O)[C@H](CCCNC(N)=O)NC(=O)[C@H](CC(=O)O)NC1=O)NC(=O)[C@H](CC(C)(C)C)NC(=O)[C@H](CC(=O)O)NC2=O (stereo partly drawn) [I-841, Ac-PL3-Asp-Npg-B5-Asp-Cit-Ala-Ala-Phe-Asn-PyrS2-3Thi-BztA-His-NH2]	–	14 µM (≈ 27.6 µg/mL)	12 nM	2.26	–	34.4 µM	–	–	–	–	–	–
CC(=O)N1CCC[C@]12CC=CCCCC1(CCCC=CCCCCOC(=O)N3CC[C@@](C(=O)N[C@@H](Cc4ccsc4)C(=O)N[C@@H](Cc4csc5ccccc45)C(=O)N[C@@H](Cc4c[nH]cn4)C(=O)N[C@H](C)C(N)=O)(C3)NC(=O)[C@H](CC(N)=O)NC(=O)[C@H](Cc3ccccc3)NC(=O)[C@H](C)NC(=O)[C@H](C)NC(=O)[C@H](CC(=O)O)NC(=O)[C@H](CC(=O)O)NC1=O)NC(=O)[C@H](CC(C)(C)C)NC(=O)[C@H](CC(=O)O)NC2=O (stereo partly drawn) [I-833, Ac-PL3-Asp-Npg-B5-Asp-Asp-Ala-Ala-Phe-Asn-PyrS3-3Thi-BztA-His-dAla-NH2]	48.1 µM	–	8 nM	–	–	–	50 µM (≈ 101 µg/mL)	–	–	2.146	8 nM	–
CC(=O)N1CCC[C@]12CC=CCCCC1(CCCC=CCCCOC(=O)N3CC[C@@](C(=O)N[C@@H](Cc4ccsc4)C(=O)N[C@@H](Cc4csc5ccccc45)C(=O)N[C@@H](Cc4c[nH]cn4)C(N)=O)(C3)NC(=O)[C@H](CC(C)C)NC(=O)[C@H](Cc3ccccc3)NC(=O)[C@H](C)NC(=O)[C@H](C)NC(=O)[C@H](CC(=O)O)NC(=O)[C@H](CC(=O)O)NC1=O)NC(=O)[C@H](CC(C)(C)C)NC(=O)[C@H](CC(=O)O)NC2=O (stereo partly drawn) [I-802, Ac-PL3-Asp-Npg-B5-Asp-Asp-Ala-Ala-Phe-Leu-PyrS2-3Thi-BztA-His-NH2]	4.8 µM	–	6 nM	2.3	–	–	10 µM (≈ 19.3 µg/mL)	–	–	–	–	–
CC(=O)N1CCC[C@]12CC=CCCCC1(CCCC=CCCCOC(=O)N3CC[C@@](C(=O)N[C@@H](Cc4ccsc4)C(=O)N[C@@H](Cc4csc5ccccc45)C(=O)N[C@@H](CCC(N)=O)C(N)=O)(C3)NC(=O)[C@H](CC(N)=O)NC(=O)[C@H](Cc3ccccc3)NC(=O)[C@H](C)NC(=O)[C@H](C)NC(=O)[C@H](Cc3c[nH]cn3)NC(=O)[C@H](CC(=O)O)NC1=O)NC(=O)[C@H](CC(C)(C)C)NC(=O)[C@H](CC(=O)O)NC2=O (stereo partly drawn) [I-864, Ac-PL3-Asp-Npg-B5-Asp-His-Ala-Ala-Phe-Asn-PyrS2-3Thi-BztA-Gln-NH2]	40 µM	–	12 nM	2.62	–	–	10 µM (≈ 19.4 µg/mL)	–	–	–	–	29.1 µM
CC(=O)N1CCC[C@]12CC=CCCCC1(CCCC=CCCCCCC[C@@](C)(C(=O)N[C@@H](Cc3ccccc3Cl)C(=O)N[C@@H](Cc3csc4ccccc34)C(=O)N[C@@H](CCC(N)=O)C(N)=O)NC(=O)[C@H]([C@@H](C)O)NC(=O)[C@H](Cc3ccccc3)NC(=O)[C@H](C)NC(=O)[C@H](C)NC(=O)[C@H](CCC(=O)O)NC(=O)[C@H](CC(=O)O)NC1=O)NC(=O)[C@H](CC(C)(C)C)NC(=O)[C@H](CC(=O)O)NC2=O (stereo partly drawn) [I-1089, Ac-PL3-Asp-Npg-B5-Asp-Glu-Ala-Ala-Phe-Thr-S8-2C1F-BztA-Gln-NH2]	8.9 µM	–	12 nM	–	–	–	43 µM (≈ 81.9 µg/mL)	–	–	2.826	12 nM	–
CC(=O)N1CCC[C@]12CC=CCCCC1(CCCC=CCCCOC(=O)N3CC[C@@](C(=O)N[C@@H](Cc4ccsc4)C(=O)N[C@@H](Cc4csc5ccccc45)C(=O)N[C@@H](CCC(N)=O)C(=O)N[C@@H](CCCCNC(=O)c4ccc5ccccc5c4)C(N)=O)(C3)NC(=O)[C@H](CC(N)=O)NC(=O)[C@H](Cc3ccccc3)NC(=O)[C@H](C)NC(=O)[C@H](C)NC(=O)[C@H](CC(=O)O)NC(=O)[C@H](CC(=O)O)NC1=O)NC(=O)[C@H](CC(C)(C)C)NC(=O)[C@H](CC(=O)O)NC2=O (stereo partly drawn) [I-915, Ac-PL3-Asp-Npg-B5-Asp-Asp-Ala-Ala-Phe-Asn-PyrS2-3Thi-BztA-Gln-[2Napc]Lys-NH2]	15.5 µM	41 µM (≈ 90.2 µg/mL)	28 nM	2.33	–	–	–	–	–	–	–	–

Next, values leading:

IC50 ([1]; read-out: NanoBRET Abs IC50)	Solubility (Solubility in PBS; Solubility (uM))	IC50 ([2]; read-out: beta-Catenin FP IC50)	chromatographic logD (CHI Log D procedure)	IC50 ([1]; Abs IC50, read-out: NanoBRET Abs IC50)	IC50 [1, 3]	Solubility (Solubility in PBS)	IC50 [2, 4]	IC50 ([2]; read-out: FP EC50)	CHI Log D (CHI Log D procedure)	IC50 [2, 5]	IC50 ([1]; read-out: NanoBRET IC50)	SMILES
–	–	–	–	10 µM	10 µM	50 µM (≈ 92.8 µg/mL)	14 nM	14 nM	2.432	–	–	CC(=O)N1CCC[C@]12CC=CCCCC1(CCCC=CCCCCCC[C@@](C)(C(=O)N[C@@H](Cc3ccccc3)C(=O)N[C@@H](Cc3csc4ccccc34)C(=O)N[C@@H](CC(N)=O)C(N)=O)NC(=O)[C@H](CC(N)=O)NC(=O)[C@H](Cc3ccccc3)NC(=O)[C@H](C)NC(=O)[C@H](C)NC(=O)[C@H](CCC(=O)O)NC(=O)[C@H](CC(=O)O)NC1=O)NC(=O)[C@H](CC(C)C)NC(=O)[C@H](CC(=O)O)NC2=O (stereo partly drawn) [I-753, Ac-PL3-Asp-Leu-B5-Asp-Glu-Ala-Ala-Phe-Asn-S8-Phe-BztA-Asn-NH2]
–	–	–	–	–	19.4 µM	44 µM (≈ 84.8 µg/mL)	25 nM	25 nM	2.1	–	–	CC(=O)N1CCC[C@]12CC=CCCCC1(CCCC=CCCCOC(=O)N3CC[C@@](C(=O)N[C@@H](Cc4ccccc4)C(=O)N[C@@H](Cc4csc5ccccc45)C(=O)N[C@@H](CCC(N)=O)C(N)=O)(C3)NC(=O)[C@H](CC(N)=O)NC(=O)[C@H](Cc3ccccc3)NC(=O)[C@H](C)NC(=O)[C@H](C)NC(=O)[C@H](CCC(=O)O)NC(=O)[C@H](CC(=O)O)NC1=O)NC(=O)[C@H](CC(C)(C)C)NC(=O)[C@H](CC(=O)O)NC2=O (stereo partly drawn) [I-685, Ac-PL3-Asp-Npg-B5-Asp-Glu-Ala-Ala-Phe-Asn-PyrS2-Phe-BztA-Gln-NH2]
–	–	–	–	–	16.1 µM	46 µM (≈ 87.4 µg/mL)	26 nM	26 nM	2.125	–	–	CC[C@H](C)[C@@H]1NC(=O)[C@H](CC(=O)O)NC(=O)[C@]2(CC=CCCCC3(CCCC=CCCCCCC[C@@](C)(C(=O)N[C@@H](Cc4ccccc4)C(=O)N[C@@H](Cc4csc5ccccc45)C(=O)N[C@@H](CCC(N)=O)C(N)=O)NC(=O)[C@H](CCC(N)=O)NC(=O)[C@H](Cc4ccccc4)NC(=O)[C@H](CO)NC(=O)[C@H](C)NC(=O)[C@H](CCC(=O)O)NC(=O)[C@H](CC(=O)O)NC3=O)NC1=O)CCCN2C(C)=O (stereo partly drawn) [I-662, Ac-PL3-Asp-Ile-B5-Asp-Glu-Ala-Ser-Phe-Gln-S8-Phe-BztA-Gln-NH2]
